Patent US10092537B2, “Use for PAI-1 inhibitor” (RENASCIENCE CO., LTD., priority 2013, dated 2018)

B1: G-CSF: granulocyte colony stimulating factor, administered 150 μg/kg/day (protein, UniProt P09919 31-207, looked up)
Granulocyte …: TPLGPASSLPQSFLLKCLEQVRKIQGDGAALQEKLVSECATYKLCHPEELVLLGHSLGIPWAPLSSCPSQALQLAGCLSQLHSGLFLYQGLLQALEGISPELGPTLDTLQLDVADFATTIWQQMEELGMAPALQPTQGAMPAFASAFQRRAGGVLVASHLQSFLEVSYRVLRHLAQP

What was measured:
human PAI-1 [1] = target: T1, human PAI-1 (Homo sapiens, UniProt P05121); experiment: Measurement of PAI-1 inhibitory activity of compound group 2 (t-PA, S-2288 chromogenic substrate); conditions: PAI-1 activity of the system without compound after 30 minutes taken as 100%
Experimental: Subsequently, human-derived tissue plasminogen activator (t-PA) (manufactured by American Diagnostica, Inc. (USA); the same applies hereinafter) adjusted to 0.3 pmol/μL was added thereto, and the mixture was further incubated at 37° C. for 15 minutes.

human PAI-1 [2] = target: T1, human PAI-1; experiment: Measurement of PAI-1 inhibitory activity of compound group 3 (t-PA, S-2288 chromogenic substrate; Table 4)
Experimental: Subsequently, tissue plasminogen activator (t-PA) (manufactured by American Diagnostica, Inc. (USA); the same applies hereinafter) adjusted to 0.3 pmol/μL was added thereto, and further incubated at 37° C. for 15 minutes.

human PAI-1 [3] = target: T1, human PAI-1; experiment: Measurement of PAI-1 inhibitory activity of compound group 1 (t-PA, Spectrozyme t-PA chromogenic substrate); conditions: for PAI-1 activity %: PAI-1 activity of the system without compound after 120 minutes taken as 100%; for activity at 2.5 µM / activity at 10 µM: read-out: PAI-1 activity %
hematopoietic stem cells [4] = experiment: Hematopoietic recovery after bone-marrow transplantation, compounds a, b, c (Experimental Example 5); format: in vivo, mice; conditions: compound a 100 mg/kg oral 4 days; compounds b and c 10 mg/kg oral 6 consecutive days after bone-marrow transplantation
Experimental: The procedures of Experimental Examples 4 (1) and 4 (4) were repeated using compounds b and c, instead of compound a, as a test compound.
Compound a was orally administered in an amount of 100 mg/kg for 4 consecutive days after bone-marrow transplantation. Compounds b and c were orally administered in an amount of 10 mg/kg for 6 consecutive days after bone-marrow transplantation.
Bone marrow was collected 1 and 3 weeks after bone-marrow transplantation. The total number of the whole bone-marrow cells (FIG. 9E), the proportion (%) of LSK-CD34 negative cells in the whole bone marrow (FIG. 9A), the total number of LSK-CD34 negative cells in the whole bone marrow (FIG. 9B), the proportion (%) of Lin-SLAM cells in the whole bone marrow (FIG. 9C), and the total number of Lin-SLAM cells in the whole bone marrow (FIG. 9D) were measured. The results are shown in the above-stated figures.

human PAI-1 [5] = target: T1, human PAI-1; experiment: Measurement of PAI-1 inhibitory activity of compound group 1 (t-PA, S-2288 chromogenic substrate); conditions: read-out: PAI-1 activity %
Experimental: Subsequently, human-derived tissue plasminogen activator (t-PA) (manufactured by American Diagnostica, Inc. (USA); the same applies hereinafter) adjusted to 0.35 pmol/μL was added thereto, and the mixture was further incubated at 37° C. for 15 minutes.

hematopoietic stem cells [6] = experiment: Bone-marrow transplanted mice, compound c, G-CSF and G-CSF neutralizing antibody (Experimental Example 13); format: in vivo; conditions: G-CSF 150 μg/kg/day
Experimental: Bone-marrow transplanted mice were prepared in the same manner as in Experimental Example 4, and compound c, G-CSF, and G-CSF neutralizing antibody were examined for the effects. Specifically, the bone-marrow transplanted mice were divided into 5 groups as shown below (each group: n=5) and orally administered respective test drugs.
Group 1: vehicle group (physiological saline was administered via gavage) (“v group”)
Group 2: compound c group (compound c [10 mg/kg/day] was administered via gavage) (“TM group”)
Group 3: G-CSF group (G-CSF [150 μg/kg/day] was administered via gavage) (“G group”)
Group 4: vehicle+anti-G-CSF group (physiological saline+G-CSF neutralizing antibody [500 μg/kg/day] was administered via gavage) (“v+Ab group”)
Group 5: compound c+anti-G-CSF group (compound c [500 μg/kg/day]+G-CSF neutralizing antibody [500 μg/kg/day] was administered via gavage) (“TM+Ab group”)
Concurrently with bone-marrow transplantation, administration of physiological saline (vehicle) to the vehicle group via gavage was started, and the administration continued for 5 consecutive days. Concurrently with bone-marrow transplantation, administration of compound c (10 mg/kg/day) to the compound c group via gavage was started, and the administration continued for 5 consecutive days. Concurrently with bone-marrow transplantation, subcutaneous administration of G-CSF (150 μg/kg/day) to the G-CSF group was started, and the administration continued for 5 consecutive days. Concurrently with bone-marrow transplantation, gavage administration of physiological saline and subcutaneous administration of G-CSF neutralizing antibody (R&D) (500 μg/kg/day) to the vehicle+anti-G-CSF group were started, and the administration continued for 5 consecutive days. Concurrently with bone-marrow transplantation, gavage administration of compound c (10 mg/kg/day) and intraperitoneal administration of G-CSF neutralizing antibody (R&D) (500 μg/kg/day) to the compound c+anti-G-CSF group were started, and the administration continued for 5 consecutive days.
1 week after bone-marrow transplantation, plasma and bone-marrow fluids were collected from mice of each group (v group, TM group, G group, v+Ab group, and TM+Ab group), and the G-CSF concentration (pg/ml) was measured by ELISA. The following were determined in accordance with an ordinary procedure: (B) G-CSF concentration (pg/ml) in bone-marrow fluids, (C) total number of mononucleic cells (×10E7 cell) in the bone marrow, (D) proportion (%) of LSK CD34 negative cells in the bone marrow, (E) total number of LSK CD34 negative cells in the bone marrow, (F) proportion (%) of Lin-SLAM cells in the bone marrow, and (G) total number of Lin-SLAM cells in the bone marrow.

T1 sequence (P05121 24-402): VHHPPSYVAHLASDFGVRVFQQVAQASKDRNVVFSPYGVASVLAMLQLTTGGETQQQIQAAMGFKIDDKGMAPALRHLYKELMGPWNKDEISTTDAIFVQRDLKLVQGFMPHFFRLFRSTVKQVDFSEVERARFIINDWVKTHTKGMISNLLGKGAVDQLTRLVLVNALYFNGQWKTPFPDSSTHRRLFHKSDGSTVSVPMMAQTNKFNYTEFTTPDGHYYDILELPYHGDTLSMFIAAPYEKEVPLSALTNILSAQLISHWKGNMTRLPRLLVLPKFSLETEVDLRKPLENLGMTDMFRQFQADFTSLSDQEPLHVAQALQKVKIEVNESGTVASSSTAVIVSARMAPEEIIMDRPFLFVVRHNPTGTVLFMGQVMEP

Molecule | PAI-1 activity % (human PAI-1 [1]; compound 20 μM) | PAI-1 activity % (human PAI-1 [1]; compound 50 μM) | PAI-1 activity % (human PAI-1 [2]; compound concentration 20 μM) | PAI-1 activity % (human PAI-1 [2]; compound concentration 50 μM) | activity at 2.5 µM (human PAI-1 [3]) | activity at 10 µM (human PAI-1 [3]) | also measured
O=C(COc1cccc(-c2ccccc2)c1)Nc1ccc(-c2ccccc2)cc1C(=O)O [Example 45] | 79.6% | 7.7% | 47.8% | 8.4% | – | – | PAI-1 activity % (human PAI-1 [3]; compound 2.5 μM): 76.9%; PAI-1 activity % (human PAI-1 [3]; compound 10 μM): 0.9%
O=C(Nc1ccc(Cl)cc1C(=O)[O-])c1cccc(-c2cccc3cccnc23)c1.[Na+] [Example 68, sodium 5-chloro-2-({[3-(quinolin-8-yl)phenyl]carbonyl}amino)benzoate] | 99.8% | 66.3% | 20.7% | 9.4% | 2.4% | 2.1% | –
O=C(Nc1ccc(Cl)cc1C(=O)[O-])c1cccc(-c2cnc3ccccc3c2)c1.[Na+] [Example 63, sodium 5-chloro-2-({[3-(quinolin-3-yl)phenyl]carbonyl}amino)benzoate] | 78.2% | 21.4% | 64.3% | 10.6% | 21.3% | 0.3% | –
O=C(Nc1ccc(Cl)cc1C(=O)[O-])c1cccc(-c2cccc3cnccc23)c1.[Na+] [Example 66, sodium 5-chloro-2-({[3-(isoquinolin-5-yl)phenyl]carbonyl}amino)benzoate] | 97.7% | 13.1% | 59.2% | 17.7% | 22.6% | 0.1% | –
CC(C(=O)Nc1ccc(Cl)cc1C(=O)O)(c1ccccc1)c1ccccc1 [Example 39] | – | – | 64.3% | 6.9% | – | – | PAI-1 activity % (human PAI-1 [1]; compound 100 μM): 36.1%; PAI-1 activity % (human PAI-1 [3]; compound 2.5 μM): 88.6%; PAI-1 activity % (human PAI-1 [3]; compound 10 μM): 22.1%
O=C(Nc1ccc(Cl)cc1C(=O)[O-])c1ccc(-c2cccc3cccnc23)cc1.[Na+] [Example 67, sodium 5-chloro-2-({[4-(quinolin-8-yl)phenyl]carbonyl}amino)benzoate] | 99.8% | 75.0% | 57.6% | 8.1% | 90.4% | 0.6% | –
O=C(Nc1ccc(Cl)cc1C(=O)[O-])c1cccc(-c2ccc3ncccc3c2)c1.[Na+] [Example 65, sodium 5-chloro-2-({[3-(quinolin-6-yl)phenyl]carbonyl}amino)benzoate] | 76.9% | 10.8% | 86.0% | 25.4% | 71.7% | 0.4% | –
O=C(COc1ccc(-c2ccccc2)cc1)Nc1ccc(-c2ccoc2)cc1C(=O)O [Example 46] | 85.4% | 8.4% | 83.9% | 47.3% | – | – | PAI-1 activity % (human PAI-1 [3]; compound 2.5 μM): 69.9%; PAI-1 activity % (human PAI-1 [3]; compound 10 μM): 0.4%
O=C(Nc1cccc(-c2ccoc2)c1)C(=O)Nc1ccc(Cl)cc1C(=O)O [Example 45 (compound group 3), 5-chloro-2-{[{[3-(furan-3-yl)phenyl]amino}(oxo)acetyl]amino}benzoic acid] | – | – | – | – | – | – | frequency of hematopoietic stem cells (hematopoietic stem cells [4]): increase; self-renewal capacity of hematopoietic stem cells (hematopoietic stem cells [4]): enhance
O=C(Nc1ccc(Cl)cc1C(=O)[O-])c1cccc(-c2ccncc2)c1.[Na+] [Example 8, sodium 5-chloro-2-({[3-(pyridin-4-yl)phenyl]carbonyl}amino)benzoate] | – | 12.9% | 95.6% | 12.4% | 100% | 28.5% | PAI-1 activity % (human PAI-1 [1]; compound 100 μM): 9.3%
O=C(Nc1ccc(Cl)cc1C(=O)[O-])c1cccc(-c2cncc3ccccc23)c1.[Na+] [Example 64, sodium 5-chloro-2-({[3-(isoquinolin-4-yl)phenyl]carbonyl}amino)benzoate] | 62.7% | 7.5% | 71.6% | 19.2% | 74.3% | 0.7% | –
O=C([O-])c1cc(Cl)ccc1NC(=O)C1CCCN(C(=O)c2cccc(-c3ccoc3)c2)C1.[Na+] (centres unmarked) [Example 11, sodium 5-chloro-2-{[(1-{[3-(furan-3-yl)phenyl]carbonyl}piperidin-3-yl)carbonyl]amino}benzoate] | – | 99.3% | 64.7% | 11.5% | – | – | activity at 20 µM (human PAI-1 [5]): 68.2%; activity at 50 µM (human PAI-1 [5]): 26.1%; PAI-1 activity % (human PAI-1 [1]; compound 100 μM): 20.7%
B1 | – | – | – | – | – | – | proportion and number of Lin-SLAM cells (hematopoietic stem cells [6]; single agents: TM (compound c) 10 mg/kg/day, G-CSF neutralizing antibody 500 μg/kg/day with vehicle, versus vehicle group): increased; G-CSF concentration in the plasma and bone-marrow fluids (hematopoietic stem cells [6]; single agents: compound c 10 mg/kg/day gavage, G-CSF neutralizing antibody 500 μg/kg/day with vehicle, 1 week after transplantation, versus vehicle): significant increases; proportion and number of LSK CD34 negative cells (hematopoietic stem cells [6]; single agents: compound c 10 mg/kg/day, G-CSF neutralizing antibody 500 μg/kg/day with vehicle, versus vehicle group): increased; number of BM MNC (hematopoietic stem cells [6]; single agents: compound c 10 mg/kg/day, versus vehicle group): more increased
